Measurements: PubChem BioAssay (NCI)
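Cells were grown in 96-well plates and exposed to each compound for 48 hours at five concentrations; endpoints were interpolated linearly between bracketing concentrations, or set to the highest concentration if not reached. At the TGI there is no net growth.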

How the values were obtained:
Experiment in all cases: NCI tumour cell line growth inhibition, 48 h
LOX IMVI melanoma = system: LOX IMVI melanoma
UACC-62 melanoma = system: UACC-62 melanoma
SNB-78 CNS = system: SNB-78 CNS
RXF 393 renal = system: RXF 393 renal
LXFL 529 NSCLC = system: LXFL 529 NSCLC
IGROV1 ovarian = system: IGROV1 ovarian
DLD-1 colon = system: DLD-1 colon
NCI-H23 lung = system: NCI-H23 lung
SNB-75 CNS = system: SNB-75 CNS
UACC-257 melanoma = system: UACC-257 melanoma
CAKI-1 renal = system: CAKI-1 renal
K-562 leukemia = system: K-562 leukemia
MALME-3M melanoma = system: MALME-3M melanoma
TK-10 renal = system: TK-10 renal
ACHN renal = system: ACHN renal
M14 melanoma = system: M14 melanoma
OVCAR-8 ovarian = system: OVCAR-8 ovarian
HOP-62 NSCLC = system: HOP-62 NSCLC
XF 498 CNS = system: XF 498 CNS
COLO 205 colon = system: COLO 205 colon
SK-OV-3 ovarian = system: SK-OV-3 ovarian
HCC-2998 colon = system: HCC-2998 colon
SF-268 CNS = system: SF-268 CNS
SK-MEL-2 melanoma = system: SK-MEL-2 melanoma
SF-539 CNS = system: SF-539 CNS
HCT-116 colon = system: HCT-116 colon
HOP-18 NSCLC = system: HOP-18 NSCLC
CCRF-CEM leukemia = system: CCRF-CEM leukemia
SW-620 colon = system: SW-620 colon
DMS 114 small cell lung = system: DMS 114 small cell lung
HOP-92 NSCLC = system: HOP-92 NSCLC
OVCAR-3 ovarian = system: OVCAR-3 ovarian
NCI-H522 lung = system: NCI-H522 lung
RXF-631 renal = system: RXF-631 renal
HT29 colon = system: HT29 colon
DMS 273 small cell lung = system: DMS 273 small cell lung
786-0 renal = system: 786-0 renal
SK-MEL-5 melanoma = system: SK-MEL-5 melanoma
OVCAR-4 ovarian = system: OVCAR-4 ovarian
KM12 colon = system: KM12 colon
A549 NSCLC = system: A549 NSCLC
EKVX NSCLC = system: EKVX NSCLC
UO-31 renal = system: UO-31 renal
NCI-H226 lung = system: NCI-H226 lung
SK-MEL-28 melanoma = system: SK-MEL-28 melanoma
RPMI-8226 leukemia = system: RPMI-8226 leukemia
SF-295 CNS = system: SF-295 CNS
NCI-H460 lung = system: NCI-H460 lung
M19-MEL melanoma = system: M19-MEL melanoma
U251 CNS = system: U251 CNS
KM20L2 colon = system: KM20L2 colon
A498 renal = system: A498 renal
SNB-19 CNS = system: SNB-19 CNS
OVCAR-5 ovarian = system: OVCAR-5 ovarian
HCT-15 colon = system: HCT-15 colon
SN12C renal = system: SN12C renal
SR leukemia = system: SR leukemia
MOLT-4 leukemia = system: MOLT-4 leukemia
HL-60(TB) leukemia = system: HL-60(TB) leukemia

Compound: CC(O)C(N=Cc1nc(-c2ccccc2)oc1O)C(=O)O (stereo unspecified)
- TGI (LOX IMVI melanoma): > 100 µM
- TGI (UACC-62 melanoma): > 100 µM
- TGI (SNB-78 CNS): > 100 µM
- TGI (RXF 393 renal): > 100 µM
- TGI (LXFL 529 NSCLC): > 100 µM
- TGI (IGROV1 ovarian): > 100 µM
- TGI (DLD-1 colon): > 100 µM
- TGI (NCI-H23 lung): > 100 µM
- TGI (SNB-75 CNS): > 100 µM
- TGI (UACC-257 melanoma): > 100 µM
- TGI (CAKI-1 renal): > 100 µM
- TGI (K-562 leukemia): > 100 µM
- TGI (MALME-3M melanoma): > 100 µM
- TGI (TK-10 renal): > 100 µM
- TGI (ACHN renal): > 100 µM
- TGI (M14 melanoma): > 100 µM
- TGI (OVCAR-8 ovarian): > 100 µM
- TGI (HOP-62 NSCLC): > 100 µM
- TGI (XF 498 CNS): > 100 µM
- TGI (COLO 205 colon): > 100 µM
- TGI (SK-OV-3 ovarian): > 100 µM
- TGI (HCC-2998 colon): > 100 µM
- TGI (SF-268 CNS): > 100 µM
- TGI (SK-MEL-2 melanoma): > 100 µM
- TGI (SF-539 CNS): > 100 µM
- TGI (HCT-116 colon): > 100 µM
- TGI (HOP-18 NSCLC): > 100 µM
- TGI (CCRF-CEM leukemia): > 100 µM
- TGI (SW-620 colon): > 100 µM
- TGI (DMS 114 small cell lung): > 100 µM
- TGI (HOP-92 NSCLC): > 100 µM
- TGI (OVCAR-3 ovarian): > 100 µM
- TGI (NCI-H522 lung): > 100 µM
- TGI (RXF-631 renal): > 100 µM
- TGI (HT29 colon): > 100 µM
- TGI (DMS 273 small cell lung): > 100 µM
- TGI (786-0 renal): > 100 µM
- TGI (SK-MEL-5 melanoma): > 100 µM
- TGI (OVCAR-4 ovarian): > 100 µM
- TGI (KM12 colon): > 100 µM
- TGI (A549 NSCLC): > 100 µM
- TGI (EKVX NSCLC): > 100 µM
- TGI (UO-31 renal): > 100 µM
- TGI (NCI-H226 lung): > 100 µM
- TGI (SK-MEL-28 melanoma): > 100 µM
- TGI (RPMI-8226 leukemia): > 100 µM
- TGI (SF-295 CNS): > 100 µM
- TGI (NCI-H460 lung): > 100 µM
- TGI (M19-MEL melanoma): > 100 µM
- TGI (U251 CNS): > 100 µM
- TGI (KM20L2 colon): > 100 µM
- TGI (A498 renal): > 100 µM
- TGI (SNB-19 CNS): > 100 µM
- TGI (OVCAR-5 ovarian): > 100 µM

Compound: Cc1ccc(S(=O)(=O)N/N=c2\c(C)c(C3=NS(=O)(=O)c4cc(S(N)(=O)=O)c(Cl)cc4N3)oc3c(Cl)cc(Cl)cc23)cc1
- TGI (HCT-15 colon): > 100 µM
- TGI (LOX IMVI melanoma): > 100 µM
- TGI (UACC-62 melanoma): > 100 µM
- TGI (SNB-78 CNS): > 100 µM
- TGI (RXF 393 renal): > 100 µM
- TGI (LXFL 529 NSCLC): > 100 µM
- TGI (IGROV1 ovarian): > 100 µM
- TGI (DLD-1 colon): > 100 µM
- TGI (NCI-H23 lung): > 100 µM
- TGI (SNB-75 CNS): > 100 µM
- TGI (UACC-257 melanoma): > 100 µM
- TGI (CAKI-1 renal): > 100 µM
- TGI (K-562 leukemia): > 100 µM
- TGI (MALME-3M melanoma): > 100 µM
- TGI (TK-10 renal): > 100 µM
- TGI (ACHN renal): > 100 µM
- TGI (SN12C renal): > 100 µM
- TGI (M14 melanoma): > 100 µM
- TGI (OVCAR-8 ovarian): > 100 µM
- TGI (HOP-62 NSCLC): > 100 µM
- TGI (COLO 205 colon): 47.8 µM
- TGI (SK-OV-3 ovarian): > 100 µM
- TGI (SR leukemia): > 100 µM
- TGI (HCC-2998 colon): > 100 µM
- TGI (SF-268 CNS): > 100 µM
- TGI (SK-MEL-2 melanoma): > 100 µM
- TGI (SF-539 CNS): > 100 µM
- TGI (HCT-116 colon): > 100 µM
- TGI (HOP-18 NSCLC): > 100 µM
- TGI (CCRF-CEM leukemia): > 100 µM
- TGI (SW-620 colon): 22.9 µM
- TGI (DMS 114 small cell lung): > 100 µM
- TGI (HOP-92 NSCLC): > 100 µM
- TGI (OVCAR-3 ovarian): > 100 µM
- TGI (MOLT-4 leukemia): > 100 µM
- TGI (RXF-631 renal): > 100 µM
- TGI (HT29 colon): > 100 µM
- TGI (DMS 273 small cell lung): 54 µM
- TGI (786-0 renal): > 100 µM
- TGI (SK-MEL-5 melanoma): > 100 µM
- TGI (OVCAR-4 ovarian): > 100 µM
- TGI (KM12 colon): > 100 µM
- TGI (A549 NSCLC): > 100 µM
- TGI (EKVX NSCLC): > 100 µM
- TGI (UO-31 renal): > 100 µM
- TGI (NCI-H226 lung): > 100 µM
- TGI (SK-MEL-28 melanoma): > 100 µM
- TGI (RPMI-8226 leukemia): > 100 µM
- TGI (HL-60(TB) leukemia): > 100 µM
- TGI (SF-295 CNS): > 100 µM
- TGI (NCI-H460 lung): > 100 µM
- TGI (M19-MEL melanoma): > 100 µM
- TGI (U251 CNS): 67.9 µM
- TGI (KM20L2 colon): > 100 µM
- TGI (A498 renal): > 100 µM
- TGI (SNB-19 CNS): > 100 µM
- TGI (OVCAR-5 ovarian): > 100 µM
